Experiment: Inhibition of Con A-induced BALB/c mouse T cell proliferation after 48 hrs by [3H]-thymidine incorporation assay
Assay type: functional, tissue-based

| SMILES | IC50 |
| --- | --- |
| C[C@@H]1C(=O)C2=C(COC2=O)[C@@H]2C[C@@](C)(CO)C[C@H]12 | 12.3 µM |
| C[C@@]12CO[C@]3(C1)c1coc(=O)cc1O[C@H](CO)[C@H]3C2 | 6.6 µM |

Reference: ChEMBL document CHEMBL4665762, “Conosiligins A-D, Ring-Rearranged Tremulane Sesquiterpenoids from Conocybe siliginea” (J Nat Prod, 2020)
